# Results reported in patent US8927717B1, “Thiochromeno[2,3-c]quinolin-12-one derivatives, preparation method and application thereof” (National Defense Medical Center, priority 2014, dated 2015).
# Legend:
# Assay type in all cases: cell-based
# [1] = test system: CCRF-CEM; conditions: CCRF-CEM; 10^−5 molar
# [2] = test system: HL-60(TB); conditions: HL-60(TB); 10^−5 molar
# [3] = test system: K-562; conditions: K-562; 10^−5 molar
# [4] = test system: RPMI-8226; conditions: RPMI-8226; 10^−5 molar
# [5] = test system: NCI-H23; conditions: NCI-H23; 10^−5 molar
# [6] = test system: NCI-H460; conditions: NCI-H460; 10^−5 molar
# [7] = test system: NCI-H522; conditions: NCI-H522; 10^−5 molar
# [8] = test system: COLO 205; conditions: COLO 205; 10^−5 molar
# [9] = test system: HT29; conditions: HT29; 10^−5 molar
# [10] = test system: KM12; test: cells; conditions: KM12; 10^−5 molar
# [11] = test system: SW-620; conditions: SW-620; 10^−5 molar
# [12] = test system: SF-268; conditions: SF-268; 10^−5 molar
# [13] = test system: SF-295; conditions: SF-295; 10^−5 molar
# [14] = test system: SNB-19; conditions: SNB-19; 10^−5 molar
# [15] = test system: SNB-75; conditions: SNB-75; 10^−5 molar
# [16] = test system: U251; conditions: U251; 10^−5 molar
# [17] = test system: LOX IMVI; conditions: LOX IMVI; 10^−5 molar
# [18] = test system: MALME-3M; conditions: MALME-3M; 10^−5 molar
# [19] = test system: M14; conditions: M14; 10^−5 molar
# [20] = test system: SK-MEL-28; conditions: SK-MEL-28; 10^−5 molar
# [21] = test system: SK-MEL-5; conditions: SK-MEL-5; 10^−5 molar
# [22] = test system: UACC-62; conditions: UACC-62; 10^−5 molar
# [23] = test system: OVCAR-5; conditions: OVCAR-5; 10^−5 molar
# [24] = test system: OVCAR-8; conditions: OVCAR-8; 10^−5 molar
# [25] = test system: NCI/ADR-RES; conditions: NCI/ADR-RES; 10^−5 molar
# [26] = test system: 786-0; conditions: 786-0; 10^−5 molar
# [27] = test system: ACHN; conditions: ACHN; 10^−5 molar
# [28] = test system: RXF 393; conditions: RXF 393; 10^−5 molar
# [29] = test system: SN12C; conditions: SN12C; 10^−5 molar
# [30] = test system: TK-10; conditions: TK-10; 10^−5 molar
# [31] = test system: UO-31; conditions: UO-31; 10^−5 molar
# [32] = test system: PC-3; conditions: PC-3; 10^−5 molar
# [33] = test system: DU-145; conditions: DU-145; 10^−5 molar
# [34] = test system: MCF7; conditions: MCF7; 10^−5 molar
# [35] = test system: MDA-MB-231/ATCC; conditions: MDA-MB-231/ATCC; 10^−5 molar
# [36] = test system: HS 578T; conditions: HS 578T; 10^−5 molar
# [37] = test system: T-47D; conditions: T-47D; 10^−5 molar
# [38] = test system: MDA-MB-486; conditions: MDA-MB-486; 10^−5 molar
# [39] = test system: 60 cancer cell lines; test: NCI 60-cell screen, SRB, whole panel (mean, delta, range); conditions: 10^−5 molar
structure (smiles),measurement,setting,value
"COc1ccc(CCNc2nc3ccccc3c3c(=O)c4cc(Cl)ccc4sc23)cc1 [Compound N31, 10-Chloro-6-((4-methoxyphenethyl)amino)-12H-thiochromeno[2,3-c]quinolin-12-one]",Growth percent,[1],100.93%
same,Growth percent,[2],94.27%
same,Growth percent,[3],91.76%
same,Growth percent,[4],99.98%
same,Growth percent,[5],92.72%
same,Growth percent,[6],98.14%
same,Growth percent,[7],93.69%
same,Growth percent,[8],105.41%
same,Growth percent,[9],120.78%
same,Growth percent,[10],109.46%
same,Growth percent,[11],97.10%
same,Growth percent,[12],100.14%
same,Growth percent,[13],95.31%
same,Growth percent,[14],96.74%
same,Growth percent,[15],74.50%
same,Growth percent,[16],98.72%
same,Growth percent,[17],87.78%
same,Growth percent,[18],99.74%
same,Growth percent,[19],100.06%
same,Growth percent,[20],99.41%
same,Growth percent,[21],85.38%
same,Growth percent,[22],80.17%
same,Growth percent,[23],100.83%
same,Growth percent,[24],97.83%
same,Growth percent,[25],103.78%
same,Growth percent,[26],100.71%
same,Growth percent,[27],91.19%
same,Growth percent,[28],88.50%
same,Growth percent,[29],94.23%
same,Growth percent,[30],132.57%
same,Growth percent,[31],72.12%
same,Growth percent,[32],84.95%
same,Growth percent,[33],107.03%
same,Growth percent,[34],59.13%
same,Growth percent,[35],82.31%
same,Growth percent,[36],87.49%
same,Growth percent,[37],69.90%
same,Growth percent,[38],53.93%
same,"Growth percent, Delta",[39]; delta over panel,39.45%
same,"Growth percent, Mean",[39]; mean over panel,93.38%
same,"Growth percent, Range",[39]; range over panel,78.64%
